Laboratory results: PubChem BioAssay (NCI)
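Following 48 hours of exposure in 96-well plates, responses at five concentrations were used to interpolate endpoints linearly. TGI is the concentration that stops growth completely.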

Experiments:
Assay in all cases: NCI tumour cell line growth inhibition, 48 h
EKVX NSCLC = tested on: EKVX NSCLC
NCI/ADR-RES ovarian = tested on: NCI/ADR-RES ovarian
PC-3 prostate = tested on: PC-3 prostate
HCC-2998 colon = tested on: HCC-2998 colon
M14 melanoma = tested on: M14 melanoma
ACHN renal = tested on: ACHN renal
SK-MEL-5 melanoma = tested on: SK-MEL-5 melanoma
K-562 leukemia = tested on: K-562 leukemia
NCI-H226 lung = tested on: NCI-H226 lung
UACC-62 melanoma = tested on: UACC-62 melanoma
SF-268 CNS = tested on: SF-268 CNS
OVCAR-4 ovarian = tested on: OVCAR-4 ovarian
NCI-H460 lung = tested on: NCI-H460 lung
COLO 205 colon = tested on: COLO 205 colon
NCI-H23 lung = tested on: NCI-H23 lung
DU-145 prostate = tested on: DU-145 prostate
HCT-15 colon = tested on: HCT-15 colon
SK-OV-3 ovarian = tested on: SK-OV-3 ovarian
OVCAR-5 ovarian = tested on: OVCAR-5 ovarian
MOLT-4 leukemia = tested on: MOLT-4 leukemia
T-47D breast = tested on: T-47D breast
SK-MEL-28 melanoma = tested on: SK-MEL-28 melanoma
HL-60(TB) leukemia = tested on: HL-60(TB) leukemia
786-0 renal = tested on: 786-0 renal
HOP-62 NSCLC = tested on: HOP-62 NSCLC
A498 renal = tested on: A498 renal
OVCAR-8 ovarian = tested on: OVCAR-8 ovarian
MALME-3M melanoma = tested on: MALME-3M melanoma
UO-31 renal = tested on: UO-31 renal
UACC-257 melanoma = tested on: UACC-257 melanoma
MDA-MB-435 = tested on: MDA-MB-435
SF-295 CNS = tested on: SF-295 CNS
SN12C renal = tested on: SN12C renal
RPMI-8226 leukemia = tested on: RPMI-8226 leukemia
TK-10 renal = tested on: TK-10 renal
U251 CNS = tested on: U251 CNS
A549 NSCLC = tested on: A549 NSCLC
CCRF-CEM leukemia = tested on: CCRF-CEM leukemia
SNB-19 CNS = tested on: SNB-19 CNS
SR leukemia = tested on: SR leukemia
HT29 colon = tested on: HT29 colon
SNB-75 CNS = tested on: SNB-75 CNS
HCT-116 colon = tested on: HCT-116 colon
OVCAR-3 ovarian = tested on: OVCAR-3 ovarian
MDA-MB-231 breast = tested on: MDA-MB-231 breast
HOP-92 NSCLC = tested on: HOP-92 NSCLC
BT-549 breast = tested on: BT-549 breast
SW-620 colon = tested on: SW-620 colon
MCF7 breast = tested on: MCF7 breast
SF-539 CNS = tested on: SF-539 CNS
CAKI-1 renal = tested on: CAKI-1 renal
LOX IMVI melanoma = tested on: LOX IMVI melanoma
IGROV1 ovarian = tested on: IGROV1 ovarian
KM12 colon = tested on: KM12 colon
SK-MEL-2 melanoma = tested on: SK-MEL-2 melanoma

O=C(O)c1cc(O)c2c(c1)Cc1cccc(O)c1C2=O
TGI (EKVX NSCLC): 80 µM | TGI (NCI/ADR-RES ovarian): 93.9 µM | TGI (PC-3 prostate): > 100 µM | TGI (HCC-2998 colon): > 100 µM | TGI (M14 melanoma): 55.2 µM | TGI (ACHN renal): 34.8 µM | TGI (SK-MEL-5 melanoma): 40 µM | TGI (K-562 leukemia): > 100 µM | TGI (NCI-H226 lung): 59.5 µM | TGI (UACC-62 melanoma): 36.8 µM | TGI (SF-268 CNS): 56.6 µM | TGI (OVCAR-4 ovarian): > 100 µM | TGI (NCI-H460 lung): 65.6 µM | TGI (COLO 205 colon): 57.4 µM | TGI (NCI-H23 lung): > 100 µM | TGI (DU-145 prostate): > 100 µM | TGI (HCT-15 colon): 33 µM | TGI (SK-OV-3 ovarian): > 100 µM | TGI (OVCAR-5 ovarian): > 100 µM | TGI (MOLT-4 leukemia): 56.5 µM | TGI (T-47D breast): > 100 µM | TGI (SK-MEL-28 melanoma): > 100 µM | TGI (HL-60(TB) leukemia): 47.2 µM | TGI (786-0 renal): 92.2 µM | TGI (HOP-62 NSCLC): 43 µM | TGI (A498 renal): > 100 µM | TGI (OVCAR-8 ovarian): 55.8 µM | TGI (MALME-3M melanoma): 38.1 µM | TGI (UO-31 renal): 34.2 µM | TGI (UACC-257 melanoma): 67 µM | TGI (MDA-MB-435): > 100 µM | TGI (SF-295 CNS): 50.5 µM | TGI (SN12C renal): 33.9 µM | TGI (RPMI-8226 leukemia): 53.2 µM | TGI (TK-10 renal): > 100 µM | TGI (U251 CNS): 37.3 µM | TGI (A549 NSCLC): > 100 µM | TGI (CCRF-CEM leukemia): > 100 µM | TGI (SNB-19 CNS): 95.1 µM | TGI (SR leukemia): 66.8 µM | TGI (HT29 colon): > 100 µM | TGI (SNB-75 CNS): 30.6 µM | TGI (HCT-116 colon): 67.1 µM | TGI (OVCAR-3 ovarian): 36.9 µM | TGI (MDA-MB-231 breast): 52.4 µM | TGI (HOP-92 NSCLC): 41.3 µM | TGI (BT-549 breast): > 100 µM | TGI (SW-620 colon): > 100 µM | TGI (MCF7 breast): > 100 µM

Cc1cc(O)c(/C=N/c2nc(-c3cccc([N+](=O)[O-])c3)cs2)c(=O)o1
TGI (EKVX NSCLC): > 100 µM | TGI (NCI/ADR-RES ovarian): > 100 µM | TGI (PC-3 prostate): > 100 µM | TGI (SF-539 CNS): > 100 µM | TGI (CAKI-1 renal): > 100 µM | TGI (HCC-2998 colon): > 100 µM | TGI (M14 melanoma): > 100 µM | TGI (ACHN renal): > 100 µM | TGI (SK-MEL-5 melanoma): > 100 µM | TGI (NCI-H226 lung): > 100 µM | TGI (UACC-62 melanoma): > 100 µM | TGI (OVCAR-4 ovarian): > 100 µM | TGI (NCI-H460 lung): > 100 µM | TGI (COLO 205 colon): > 100 µM | TGI (NCI-H23 lung): > 100 µM | TGI (DU-145 prostate): > 100 µM | TGI (HCT-15 colon): > 100 µM | TGI (SK-OV-3 ovarian): > 100 µM | TGI (OVCAR-5 ovarian): > 100 µM | TGI (T-47D breast): > 100 µM | TGI (SK-MEL-28 melanoma): > 100 µM | TGI (LOX IMVI melanoma): > 100 µM | TGI (HL-60(TB) leukemia): 47.2 µM | TGI (786-0 renal): > 100 µM | TGI (HOP-62 NSCLC): > 100 µM | TGI (OVCAR-8 ovarian): > 100 µM | TGI (UO-31 renal): > 100 µM | TGI (UACC-257 melanoma): > 100 µM | TGI (MDA-MB-435): > 100 µM | TGI (SF-295 CNS): > 100 µM | TGI (SN12C renal): > 100 µM | TGI (IGROV1 ovarian): > 100 µM | TGI (TK-10 renal): 26.6 µM | TGI (U251 CNS): > 100 µM | TGI (A549 NSCLC): > 100 µM | TGI (SNB-19 CNS): > 100 µM | TGI (KM12 colon): > 100 µM | TGI (HT29 colon): > 100 µM | TGI (SNB-75 CNS): > 100 µM | TGI (HCT-116 colon): > 100 µM | TGI (OVCAR-3 ovarian): > 100 µM | TGI (MDA-MB-231 breast): > 100 µM | TGI (SK-MEL-2 melanoma): > 100 µM | TGI (HOP-92 NSCLC): > 100 µM | TGI (BT-549 breast): 73.5 µM | TGI (SW-620 colon): > 100 µM | TGI (MCF7 breast): > 100 µM
